According to patent publication US10870638B2, “Pyridazinone compound or its salt, and herbicide containing it” (ISHIHARA SANGYO KAISHA, LTD., priority 2016, dated 2020):

Assays:
Type in all cases: in vivo
Conditions in all cases: active ingredient amount 31 g/ha, 14th day after application
[1] = test system: wild oat (Avena fatua L.); test: Test Example 1: foliar treatment, growth inhibition rate on 14th day
Summary of the method: (§1)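 Plants in upland soil were sprayed on the foliage at early leaf stages (wild oat 0.4–1.2, rice 0.2–2.7, green foxtail 0.5–3.2, soybean primary leaf) with wettable powder or emulsifiable concentrate formulations. Spray volume was 1,000 L/ha water containing 0.1 vol% spreader, at prescribed active-ingredient rates. Growth inhibition (0 = untreated, 100 = complete kill) was scored visually on day 14.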

[2] = test system: redroot pigweed (Amaranthus retroflexus L.); test: as above
Summary of the method: (§2)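 Visual 0–100% inhibition scoring (100 = complete kill) at 14 days after foliar treatment of soil-grown seedlings at species-specific leaf stages, with the compound sprayed as a wettable powder or emulsifiable concentrate dilution.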

[3] = test system: soybean (Glycine max Merr.); test: as above
Summary of the method: as §1

[4] = test system: wheat (Triticum aestivum L.); test: as above
Summary of the method: as §2

[5] = test system: green foxtail (Setaria viridis L.); test: as above
Summary of the method: as §1

rice (Oryza sativa L.) [6] = test: as above
Summary of the method: as §1

[7] = test system: crabgrass (Digitaria sanquinalis L.); test: as above
Summary of the method: as §2

[8] = test system: italian ryegrass (Lolium multiflorum Lam.); test: as above
Summary of the method: as §2

corn (Zea mays L.) [9] = test: as above
Summary of the method: as §2

[10] = test system: barnyardgrass (Echinochloa crus-qalli L.); test: as above
Summary of the method: as §2

[11] = test system: crabgrass (Digitaris sanquinalis L.); test: Test Example 2: soil application on the day after sowing, growth inhibition rate on 14th day
Summary of the method: (§3)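 Pre-emergence soil spray on upland soil the day after sowing; wettable powder or emulsifiable concentrate diluted in water at 1,000 L/ha, dosed to prescribed active-ingredient amounts. Visual growth inhibition scored 14 days after application, 0 (untreated-equivalent) to 100 (complete kill).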

[12] = test system: prickly sida (Sida spinosa L.); test: as above
Summary of the method: as §3

[13] = test system: redroot pigweed (Amaranthus retroflexus L.); test: as above
Summary of the method: as §3

[14] = test system: soybean (Glycine max Merr.); test: as above
Summary of the method: as §3

[15] = test system: wheat (Triticum aestivum L.); test: as above
Summary of the method: as §3

[16] = test system: green foxtail (Setaria viridis L.); test: as above
Summary of the method: as §3

rice (Oryza sativa L.) [17] = test: as above
Summary of the method: as §3

corn (Zea mays L.) [18] = test: as above
Summary of the method: as §3

[19] = test system: velvetleaf (Abutilon theophrasti MEDIC.); test: as above
Summary of the method: as §3

[20] = test system: barnyardgrass (Echinochloa crus-qalli L.); test: as above
Summary of the method: as §3

[21] = visual, 0 = non-treated, 100 = complete kill

Structure (SMILES)	Growth inhibition rate (%) Wild oat [1]	Growth inhibition rate (%) Redroot pigweed [2]	Growth inhibition rate (%) Soybean [3]	Growth inhibition rate (%) Wheat [4]	Growth inhibition rate (%) Green foxtail [5]	Growth inhibition rate (%) Rice (rice (Oryza sativa L.) [6])	Growth inhibition rate (%) Crabgrass [7]	Growth inhibition rate (%) Italian ryegrass [8]	Growth inhibition rate (%) Corn (corn (Zea mays L.) [9])	Growth inhibition rate (%) Barnyardgrass [10]	Growth inhibition rate (%) Crabgrass [11]	Growth inhibition rate (%) Prickly sida [12]	Growth inhibition rate (%) Redroot pigweed [13]	Growth inhibition rate (%) Soybean [14]	Growth inhibition rate (%) Wheat [15]	Growth inhibition rate (%) Green foxtail [16]	Growth inhibition rate (%) Rice (rice (Oryza sativa L.) [17])	Growth inhibition rate (%) Corn (corn (Zea mays L.) [18])	Growth inhibition rate (%) Velvetleaf [19]	Growth inhibition rate (%) Barnyardgrass [20]	other results
CC(=O)Oc1c(C)nn(C)c(=O)c1-c1cc(Oc2nc3ccc(Br)cc3s2)ccc1C [Compound 2-158]	65%	0%	0%	93%	98%	60%	93%	65%	0%	100%	70%	0%	0%	0%	0%	95%	0%	10%	0%	80%	
Cc1ccc(Oc2cnc3cc(Cl)ccc3n2)cc1-c1c(OC(=O)C=CCl)c(C)nn(C)c1=O [Compound 3-54]											30%	0%	0%	0%	0%	98%	0%	0%	0%	99%	Growth inhibition rate (%) Wild oat [1, 21]: 78%; Growth inhibition rate (%) Redroot pigweed [2, 21]: 0%; Growth inhibition rate (%) Soybean [3, 21]: 20%; Growth inhibition rate (%) Wheat [4, 21]: 93%; Growth inhibition rate (%) Green foxtail [5, 21]: 100%; Growth inhibition rate (%) Rice (rice (Oryza sativa L.) [6]; [21]): 20%; Growth inhibition rate (%) Crabgrass [7, 21]: 98%; Growth inhibition rate (%) Italian ryegrass [8, 21]: 95%; Growth inhibition rate (%) Corn (corn (Zea mays L.) [9]; [21]): 30%; Growth inhibition rate (%) Barnyardgrass [10, 21]: 100%
CC(=O)Oc1c(C)nn(C)c(=O)c1-c1cc(Oc2ccc3cc(Br)ccc3n2)ccc1C [Compound 2-127]	90%	0%	0%	100%	100%	70%	30%	78%	0%	100%	10%	0%	0%	0%	0%	78%	0%	0%	0%	93%	
CCc1nn(C)c(=O)c(-c2cc(Oc3nc4ccc(Cl)cc4o3)ccc2C)c1O [Compound 2-89]	0%	0%	20%	0%	93%	10%	65%	20%	30%	95%	30%	0%	0%	0%	0%	50%	30%	0%	0%	95%	
